Results published in patent US11684594B2, “Antifungal prophylaxis for cornea” (PRESIDENT AND FELLOWS OF HARVARD COLLEGE, priority 2020, dated 2023).
“Also recorded” adds a separate entry of the source. Where two headings read alike, the source gives them in different places.

Columns and labels:
[1] = tested on: Candida albicans (ATCC 24433), Fusarium solani (ATCC MYA-3636), and Aspergillus fumigatus (ATCC MYA-3626); assay: In vitro antifungal testing, statements not resolved by species; type: cell-based; details: species not resolved; for Efficacy/toxicity ratio, overall rank: fungicidal activity vs HCLE cytotoxicity; for Antifungal / fungicidal activity in vitro: agents at eye-drop or stated concentration
Description: Several commonly used antibiotics were tested in vitro against Candida albicans (ATCC 24433), Fusarium solani (ATCC MYA-3636), and Aspergillus fumigatus (ATCC MYA-3626). Time kill activity and minimum inhibitory concentrations (MIC) were determined. Also the antiseptics benzalkonium chloride (BAK), povidone-iodine (PI), and ionic liquids (ILs) consisting of a 1:1 mixture of choline and undecanoic acid, were tested. Toxicity was assayed in vitro on cultures of human corneal epithelial cells, subjected to Trypan Blue staining. Adhesion and tissue invasion experiments were also carried out, with or without γ-irradiation, and by analysis with fluorescent microscopy.
(§1) In Vitro Time Kill Tests. Microtiter time kill tests were carried out in vitro according to the published CLSI methods (M27-A2).^22

[2] = tested on: human corneal-limbal epithelial cells (HCLE); type: cell-based; details: for Cytotoxicity / toxicity: HCLE cells, post-exposure Trypan blue staining; for Trypan Blue staining (% stained area per image) compared to control treatment TX-100 (1%): FIG. 2A, confluent HCLE monolayers, 1 min of contact, BAK 40 µg/mL, PI 0.5%, #3-IL 10 mM
Description: In Vitro Toxicity Tests. Trypan Blue assays for toxicity of various antimicrobial agents were conducted using human corneal cells. Telomerase-immortalized human corneal-limbal epithelial cells (HCLE) were thawed at 37° C. and quickly transferred to a sterile T75 cell culture flask. Cells were grown in keratinocyte serum-free medium (KSFM; Gibco™; Thermofisher Scientific; Waltham, Mass.) supplemented with bovine pituitary extract (25 μg/mL), epidermal growth factor (0.2 ng/mL), calcium chloride (0.4 mM CaCl2[…]2H2O; Sigma-Aldrich; St Louis, Mo.), and 1× penicillin/streptomycin, at 37° C. with 5% CO2. Once cells were confluent, they were passaged following trypsinization in 12- or 24-well plates. After incubation with Trypsin-EDTA (0.05%, Gibco™; Thermofisher Scientific; Waltham, Mass.) for 5-10 min at 37° C. with 5% CO2, the reaction was stopped with an equivalent volume of neutralizing medium (Dulbecco's Modified Eagle Medium/Nutrient Mixture F-12, DMEM/F-12, with HEPES and 10% newborn calf serum), centrifuged at 5,000×g for 5 min, and re-suspended in supplemented KSFM. Experiments were performed using cells from passages 31 to 36. Once cells reached confluency, they were gently washed twice with DMEM/F-12 (Gibco™; Thermofisher Scientific; Waltham, Mass.) and incubated with an antimicrobial agent for 1 min (n=2 wells per group). Controls included 1×PBS (diluent) and 1% TX-100 (cell permeabilizer). After exposure to various agents, the cells were washed three times with DMEM/F-12, incubated with 0.2% Trypan Blue for 5 min, and washed again three times with DMEM/F-12. The remaining media was aspirated and replaced with 1×PBS for imaging. Macro-images of the culture plate were taken with a smartphone camera (iPhone 7; Apple Inc.; Cupertino, Calif.), and 10× images were taken with an inverted microscope (Eclipse TS100; Nikon; Tokyo, Japan) attached to a digital camera (SPOT Insight Fire Wire; Diagnostic Instruments Inc.; Sterling Heights, Mich.). 3-6 images/well were obtained in clockwise direction from areas immediately adjacent to the center of the well, and without overlapping areas. Images were quantified in ImageJ Fiji software to determine the amount of cell uptake of Trypan Blue. Macros were created from the Color Threshoulder plugin (G. Landini) to batch process the images after color matching in Photoshop to reference images per treatment group. % Area of Trypan Blue staining per image was calculated as follows: (area of blue/area of all)×100%.

[3] = tested on: A. fumigatus (ATCC MYA-3626); assay: In vitro time kill test, filamentous fungi; type: cell-based, Aspergillus fumigatus; details: for Ratio fungicidal activity/cytotoxicity: FIG. 3, # of log10 reduction / fold-change in Trypan Blue staining vs PBS (HCLE), 1 min contact, A. fumigatus
Description: as §1
(§2) ii) Filamentous fungi: The antibiotic solutions, at either full or 1/10 strength, and antiseptics were inoculated with approximately 2×10^5-2×10^6 conidia/mL of F. solani or A. fumigatus in RPMI broth (buffered with MOPS at pH 7.0; Mediatech; Manassas, Va.) for 0-15 min. Conidia were collected by flooding the agar plates with 10 mL of sterile 1×PBS and 0.1% Tween® 20 (Sigma Aldrich; St Louis, Mo.). The solution was transferred to a sterile conical tube, and particles were allowed to settle for 10 min. The resulting supernatant was transferred to a new sterile conical tube and centrifuged at 3,000×g for 5 min. The supernatant was discarded, the remaining pellet was re-suspended in RPMI broth (buffered with MOPS at pH 7.0), and the OD600 was adjusted to 1.0. In the final test solutions, at each time point the inoculum was diluted 1:10 and neutralized in Dey-Engley neutralizing broth (Sigma-Aldrich; St Louis, Mo.). Neutralized cultures were then serially diluted and plated on Sabouraud dextrose agar (two serial 1:10 dilutions, 0.1 mL each) in technical duplicate. Viable conidia were counted and recorded following aerobic incubation for 48 hrs (or as soon as growth was visible) at 25-35° C.
(§3) To investigate the fungicidal activity of various antibiotics and antimicrobials, the reduction in fungal load after short contact times (0-15 min, FIGS. 2-3), to account for the effect of rapid dilution by the tear film, as occurs in patients after topical instillation, was measured.^23 The detection limit for time kill tests was approximately 100 CFU/mL for C. albicans, and 1 CFU/mL for F. solani and A. fumigatus (corresponding to a ≥3 log difference from the starting inoculum). 20-300 cells were considered a reliable counting range per dilution, and values were averaged when more than one dilution in the same plate were within this range.

C. albicans (ATCC 24433) = assay: In vitro time kill test, yeast; type: cell-based, Candida albicans; details: for Reduction in viable colonies: FIG. 1A, full strength; for Ratio fungicidal activity/cytotoxicity: FIG. 3, # of log10 reduction / fold-change in Trypan Blue staining vs PBS (HCLE), 1 min contact, C. albicans
Description: as §1
The inoculum was prepared by adjustment of the optical density at 600 nm (OD600) to 1.0 (corresponding to approximately 1×10^6 CFU/mL), and dilution by 1:10 in the final solution. To confirm the starting inoculum size, yeasts were plated […] and colonies counted after growth for 24 hrs at 37° C. The test solutions were neutralized at each time point by ten-fold dilution in Dey-Engley neutralizing broth (Sigma-Aldrich; St Louis, Mo.), and serially track diluted (PMID: 9343684) on Sabouraud dextrose agar (six serial 1:10 dilutions, 0.01 mL each) in technical triplicate. Colonies were counted and recorded following aerobic incubation for 24 hrs at 37° C.
as §3

[4] = tested on: F. solani (ATCC MYA-3636); assay: In vitro time kill test, filamentous fungi; type: cell-based, Fusarium solani
Description: as §1, §2, §3

[5] = cited from earlier work
[6] = FIG. 1C, without BAK, MOX 5 mg/mL, GAT 5 mg/mL, CHL 5 mg/mL, VAN 14 mg/mL, within 120 min
[7] = FIG. 1B, tenth dilution, within 120 min
[8] = full strength (10,000 u/mL PMB, 40 g/mL BAK, 1 mg/mL TMP), within 120 min

For `CCCCCCCCCCCCCC(=O)NCCCN(C)C` [Aldox, myristamidopropyl dimethylamine], the “Efficacy/toxicity ratio, overall rank” value [1] was “rank lower than PI”, the “Antifungal / fungicidal activity in vitro” value [1] was “rapid and broad fungicidal activity” and the “Cytotoxicity / toxicity” value [2] was “high cytotoxicity”.
For `N=C(NCCCCCCNC(=N)NC(=N)Nc1ccc(Cl)cc1)NC(=N)Nc1ccc(Cl)cc1.O=C(O)[C@H](O)[C@@H](O)[C@H](O)[C@H](O)CO.O=C(O)[C@H](O)[C@@H](O)[C@H](O)[C@H](O)CO` [CDG, chlorhexidine digluconate], the “Efficacy/toxicity ratio, overall rank” value [1] was “rank lower than PI”, the “Antifungal / fungicidal activity in vitro” value [1] was “rapid and broad fungicidal activity; also recorded: effective” and the Ratio fungicidal activity/cytotoxicity [3] was “lowest ratio”. For the same compound, the “Contact time required for the same effect as PI and the novel IL (≥3 log10 reduction)” value (C. albicans (ATCC 24433); FIG. 2B, CDG 0.05%) was 5 min and the “Cytotoxicity / toxicity” value [2] was “high cytotoxicity; also recorded: too toxic”.
In the case of `O=C(N[C@H](CO)[C@H](O)c1ccc([N+](=O)[O-])cc1)C(Cl)Cl` [CHL, chloramphenicol], the “Antifungal / fungicidal activity in vitro” value [1] is reported as “no effect; also recorded: ineffective” and the “Fungicidal activity (words)” value (C. albicans (ATCC 24433); [6]) is reported as “fungicidal activity was not observed; also recorded: no effect”.
In the case of `COc1c(N2CCNC(C)C2)c(F)cc2c(=O)c(C(=O)O)cn(C3CC3)c12` (centres unmarked) [GAT, gatifloxacin], the “Antifungal / fungicidal activity in vitro” value [1] is reported as “no effect” and the “Fungicidal activity (words)” value (C. albicans (ATCC 24433); [6]) is reported as “fungicidal activity was not observed; also recorded: no effect”.
For `COc1c(N2C[C@@H]3CCCN[C@@H]3C2)c(F)cc2c(=O)c(C(=O)O)cn(C3CC3)c12` [MOX, moxifloxacin], the “Antifungal / fungicidal activity in vitro” value [1] was “no effect” and the “Fungicidal activity (words)” value (C. albicans (ATCC 24433); [6]) was “no effect”.
In the case of `COc1cc(Cc2cnc(N)nc2N)cc(OC)c1OC` [TMP, trimethoprim], the “Antifungal / fungicidal activity in vitro” value [1] is reported as “no effect; also recorded: ineffective”, the “Fungicidal activity (words)” value (C. albicans (ATCC 24433); [7]) is reported as “fungicidal activity was not observed” and the “Fungicidal activity (words)” value (C. albicans (ATCC 24433); [8]) is reported as “no effect”.
For `CN[C@H](CC(C)C)C(=O)N[C@H]1C(=O)N[C@@H](CC(N)=O)C(=O)N[C@H]2C(=O)N[C@H]3C(=O)N[C@H](C(=O)N[C@H](C(=O)O)c4cc(O)cc(O)c4-c4cc3ccc4O)[C@H](O)c3ccc(c(Cl)c3)Oc3cc2cc(c3O[C@@H]2O[C@H](CO)[C@@H](O)[C@H](O)[C@H]2O[C@H]2C[C@](C)(N)[C@H](O)[C@H](C)O2)Oc2ccc(cc2Cl)[C@H]1O` [VAN, vancomycin], the “Antifungal / fungicidal activity in vitro” value [1] was “no effect; also recorded: ineffective” and the “Fungicidal activity (words)” value (C. albicans (ATCC 24433); [6]) was “fungicidal activity was not observed; also recorded: no effect”.
With benzalkonium chloride [BAK] the “Antifungal / fungicidal activity in vitro” value [1] was “moderate antifungal activity”, the “Reduction in viable colonies” value (C. albicans (ATCC 24433); within 60 min) was 2 log10 and the “Reduction in viable colonies” value (C. albicans (ATCC 24433); within 120 min) was 3 log10. For the same compound, the “Fungicidal activity (words)” value (C. albicans (ATCC 24433); [7]) was “fungicidal activity was not observed”, the Ratio fungicidal activity/cytotoxicity (C. albicans (ATCC 24433)) was “lowest ratio” and the “Fungicidal activity (words)” value (C. albicans (ATCC 24433); [8]) was “comparable to the commercially prepared Polytrim®”. For the same compound, the “Trypan Blue staining (% stained area per image) compared to control treatment TX-100 (1%)” value [2] was “significantly lower amount of staining” and the “Reduction in viable conidia” value ([4]; FIG. 2C, within 1 min of contact, Polytrim full strength, PI 0.5%, BAK 40 µg/mL, #3-IL 10 mM) was 2 log10.
In the case of polymyxin B sulfate [PMB], the “Antifungal / fungicidal activity in vitro” value [1] is reported as “moderate antifungal activity”, the “Reduction in viable colonies” value (C. albicans (ATCC 24433); within 60 min) is reported as 2 log10 and the “Reduction in viable colonies” value (C. albicans (ATCC 24433); within 120 min) is reported as 3 log10. For the same compound, the “Fungicidal activity (words)” value (C. albicans (ATCC 24433); [7]) was “fungicidal activity was not observed” and the “Fungicidal activity (words)” value (C. albicans (ATCC 24433); [8]) was “comparable to the commercially prepared Polytrim®”.
For povidone iodine [PI], the “Efficacy/toxicity ratio, overall rank” value [1] was “good efficacy/toxicity ratio; also recorded: ranks second after the novel IL”, the “Antifungal / fungicidal activity in vitro” value [1] was “rapid and potent fungicidal activity” and the “Reduction in viable conidia” value ([3]; FIG. 2D, within 1 min, PI 0.5%, #3-IL 10 mM, CDG 0.05%) was 2 log10. For the same compound, the Ratio fungicidal activity/cytotoxicity [3] was “highest ratios”, the Ratio fungicidal activity/cytotoxicity (C. albicans (ATCC 24433)) was “highest ratios” and the “Reduction (kill of C. albicans)” value (C. albicans (ATCC 24433); PI 0.01-0.1%, within 120 min) was < 1 log. The “Reduction (kill of C. albicans)” value (C. albicans (ATCC 24433); PI 0.5-1%, within 1 min) was ≥ 3 log, the “Trypan Blue staining (% stained area per image) compared to control treatment TX-100 (1%)” value [2] was “significantly lower amount of staining” and the “Tolerability on instillation into the eye” value ([5]; 1% concentration) was “well tolerated”. For the same compound, the “Tolerability on instillation into the eye” value ([5]; 5% solution) was “acutely painful”, the “Tolerability / ocular safety (words)” value ([5]; clinical or long-term topical ocular use) was “ocular inflammation from long-term use has occurred” and the Ratio fungicidal activity/cytotoxicity ([4]; FIG. 3, # of log10 reduction / fold-change in Trypan Blue staining vs PBS (HCLE), 1 min contact, F. solani) was “highest ratios; also recorded: rank highest for F. solani”.
